Each compound was assayed against human PDE10A (Homo sapiens (Human), UniProt Q9Y233) (assay: human PDE10A full length Scintillation Proximity Assay (SPA)). Details: 50 nM cGMP and 50 nM [3H]-cGMP, 20 minutes at room temperature; read-out: PDE10A inhibition IC50.
Chain of human PDE10A (Q9Y233 other isoform, or with tags, fused parts or gaps): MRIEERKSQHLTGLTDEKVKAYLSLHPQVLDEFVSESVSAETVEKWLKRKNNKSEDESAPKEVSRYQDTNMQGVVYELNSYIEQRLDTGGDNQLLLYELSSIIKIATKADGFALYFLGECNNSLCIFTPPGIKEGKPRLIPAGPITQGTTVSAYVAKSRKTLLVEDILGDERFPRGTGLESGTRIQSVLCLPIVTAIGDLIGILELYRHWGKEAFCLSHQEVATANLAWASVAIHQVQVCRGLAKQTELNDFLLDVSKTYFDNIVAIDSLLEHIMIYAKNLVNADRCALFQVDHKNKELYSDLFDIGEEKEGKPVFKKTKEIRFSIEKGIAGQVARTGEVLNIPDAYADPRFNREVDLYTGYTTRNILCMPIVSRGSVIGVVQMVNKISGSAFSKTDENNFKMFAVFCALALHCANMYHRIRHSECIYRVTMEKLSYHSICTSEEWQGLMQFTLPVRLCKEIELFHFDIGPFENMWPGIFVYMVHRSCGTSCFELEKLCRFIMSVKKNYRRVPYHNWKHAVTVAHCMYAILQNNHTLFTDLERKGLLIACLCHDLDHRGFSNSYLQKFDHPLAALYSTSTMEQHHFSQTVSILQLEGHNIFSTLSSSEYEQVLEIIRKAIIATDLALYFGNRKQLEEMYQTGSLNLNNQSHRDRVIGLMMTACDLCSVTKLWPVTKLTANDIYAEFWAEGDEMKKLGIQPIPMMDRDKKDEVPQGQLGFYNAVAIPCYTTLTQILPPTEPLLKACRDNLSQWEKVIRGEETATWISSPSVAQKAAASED
Format: biochemical
Experimental: The following test was carried out in order to determine the activity of the compounds of the present invention.
The human PDE10A full length assay was performed in 96-well micro titer plates. […] Non-specific activity was tested without the enzyme. The reaction was initiated by the addition of the substrate solution (cGMP and [^3H]-cGMP) and allowed to progress for 20 minutes at room temperature. The reaction was terminated by adding 25 μl of YSi-SPA scintillation beads (GE Healthcare, cat. # RPNQ0150) in 18 mM zinc sulphate solution (stop reagent). After 1 h under shaking, the plate was centrifuged one minute at 170 g to allow beads to settle. Afterwards, radioactive counts were measured on a Perkin Elmer TopCount Scintillation plate reader.
Work on `CC1CCCN1C(=O)c1nn(C)cc1NC(=O)c1nc(C2CC2)ccc1Nc1cncnc1` (stereo not drawn) [Example 27, 6-Cyclopropyl-3-(pyrimidin-5-ylamino)-pyridine-2-carboxylic acid [1-methyl-3-(2-methyl-pyrrolidine-1-carbonyl)-1H-pyrazol-4-yl]-amide] yielded an IC50 of 11.4 nM.
`Cn1ncc(NC(=O)c2nc(C3CC3)cnc2Nc2cncnc2)c1C(=O)N1CC(F)C1` [Example 174, 6-Cyclopropyl-3-(pyrimidin-5-ylamino)-pyrazine-2-carboxylic acid [5-(3-fluoro-azetidine-1-carbonyl)-1-methyl-1H-pyrazol-4-yl]-amide] gave an IC50 of 14.8 nM.
`CNC(=O)c1c(NC(=O)c2nc(Cl)ccc2Nc2cncnc2)cnn1C` [Example 166, 6-Chloro-3-(pyrimidin-5-ylamino)-pyridine-2-carboxylic acid (1-methyl-5-methylcarbamoyl-1H-pyrazol-4-yl)-amide] showed an IC50 of 335 nM.
For `Cn1cc(NC(=O)c2nc(C3CC3)ccc2Nc2cncnc2)c(C(=O)N2CCCCC2)n1` [Example 16, 6-Cyclopropyl-3-(pyrimidin-5-ylamino)-pyridine-2-carboxylic acid [1-methyl-3-(piperidine-1-carbonyl)-1H-pyrazol-4-yl]-amide], the IC50 was 7.6 nM.
Work on `CNC(=O)c1c(F)cc(F)cc1NC(=O)c1nc(C2CC2)cnc1Nc1cncnc1` [Example 299, 6-Cyclopropyl-3-(pyrimidin-5-ylamino)-pyrazine-2-carboxylic acid (3,5-difluoro-2-methylcarbamoyl-phenyl)-amide] yielded an IC50 of 0.3 nM.
`O=C(Nc1ccc(C2CC2)nc1C(=O)N1CCC1)c1nc(C2CC2)cnc1Nc1cncnc1` [Example 272, 6-Cyclopropyl-3-(pyrimidin-5-ylamino)-pyrazine-2-carboxylic acid [2-(azetidine-1-carbonyl)-6-cyclopropyl-pyridin-3-yl]-amide] showed an IC50 of 8.5 nM.
`Cn1ncc(NC(=O)c2nc(C3CC3)cnc2Nc2cncnc2)c1C(=O)NCC1CCCO1` (stereo not drawn) [Example 232, 6-Cyclopropyl-3-(pyrimidin-5-ylamino)-pyrazine-2-carboxylic acid {1-methyl-5-[(tetrahydro-furan-2-ylmethyl)-carbamoyl]-1H-pyrazol-4-yl}-amide] showed an IC50 of 4 nM.
With `Cn1ncc(NC(=O)c2nc(C3CC3)cnc2Nc2cncnc2)c1C(=O)N1CCC1` [Example 155, 6-Cyclopropyl-3-(pyrimidin-5-ylamino)-pyrazine-2-carboxylic acid [5-(azetidine-1-carbonyl)-1-methyl-1H-pyrazol-4-yl]-amide] the IC50 was 12.7 nM.
Work on `CC(C)(O)CNC(=O)c1nc(C2CCCO2)ccc1NC(=O)c1nc(C2CC2)cnc1Nc1cncnc1` (stereo not drawn) [Example 178, 6-Cyclopropyl-3-(pyrimidin-5-ylamino)-pyrazine-2-carboxylic acid [2-(2-hydroxy-2-methyl-propylcarbamoyl)-6-(tetrahydro-furan-2-yl)-pyridin-3-yl]-amide] yielded an IC50 of 0.1 nM.
Work on `CC(C)(O)CNC(=O)c1c(NC(=O)c2nc(C3CC3)cnc2Nc2cncnc2)cnn1CC1CCOC1` (stereo not drawn) [Example 287, 6-Cyclopropyl-3-(pyrimidin-5-ylamino)-pyrazine-2-carboxylic acid [5-(2-hydroxy-2-methyl-propylcarbamoyl)-1-(tetrahydro-furan-3-ylmethyl)-1H-pyrazol-4-yl]-amide] yielded an IC50 of 15.1 nM.
In the case of `CC(C)c1ccc(NC(=O)c2nc(C3CC3)cnc2Nc2cncnc2)c(C(=O)NCC(C)(C)O)c1` [Example 207, 6-Cyclopropyl-3-(pyrimidin-5-ylamino)-pyrazine-2-carboxylic acid [2-(2-hydroxy-2-methyl-propylcarbamoyl)-4-isopropyl-phenyl]-amide], the IC50 is reported as 1.1 nM.
With `CNC(=O)c1nn(C)cc1NC(=O)c1nc(C2CCCO2)cnc1Nc1cncnc1` (stereo not drawn) [Example 96, 3-(Pyrimidin-5-ylamino)-6-(tetrahydro-furan-2-yl)-pyrazine-2-carboxylic acid (1-methyl-3-methylcarbamoyl-1H-pyrazol-4-yl)-amide] the IC50 was 96 nM.
Compound `O=C(NC1COC1)c1ncccc1NC(=O)c1nc(C2CC2)cnc1Nc1cncnc1` [Example 277, 6-Cyclopropyl-3-(pyrimidin-5-ylamino)-pyrazine-2-carboxylic acid [2-(oxetan-3-ylcarbamoyl)-pyridin-3-yl]-amide] has an IC50 of 2.7 nM.
Work on `Cn1ncc(NC(=O)c2nc(C3CC3)cnc2Nc2cncnc2)c1C(=O)NC[C@@H]1CCCO1` [Example 255, 6-Cyclopropyl-3-(pyrimidin-5-ylamino)-pyrazine-2-carboxylic acid (1-methyl-5-{[(S)-1-(tetrahydro-furan-2-yl)methyl]-carbamoyl}-1H-pyrazol-4-yl)-amide] yielded an IC50 of 2.9 nM.
Compound `Cn1ncc(NC(=O)c2nc(C3CC3)cnc2Nc2cncnc2)c1C(=O)NC1(C)COC1` [Example 136, 6-Cyclopropyl-3-(pyrimidin-5-ylamino)-pyrazine-2-carboxylic acid [1-methyl-5-(3-methyl-oxetan-3-ylcarbamoyl)-1H-pyrazol-4-yl]-amide] has an IC50 of 3.6 nM.
In the case of `CC1CCCN1C(=O)c1ncccc1NC(=O)c1nc(C2CC2)cnc1Nc1cncnc1` (stereo not drawn) [Example 252, 6-Cyclopropyl-3-(pyrimidin-5-ylamino)-pyrazine-2-carboxylic acid [2-(2-methyl-pyrrolidine-1-carbonyl)-pyridin-3-yl]-amide], the IC50 is reported as 5.8 nM.
With `CC(C)(O)CNC(=O)c1ccc(F)c(F)c1NC(=O)c1nc(C2CC2)cnc1Nc1cncnc1` [Example 326, 6-Cyclopropyl-3-(pyrimidin-5-ylamino)-pyrazine-2-carboxylic acid [2,3-difluoro-6-(2-hydroxy-2-methyl-propylcarbamoyl)-phenyl]-amide] the IC50 was 2.7 nM.
`CNC(=O)c1c(NC(=O)c2nc(C3CC3)cnc2Nc2cncnc2)cnn1C` [Example 116, 6-Cyclopropyl-3-(pyrimidin-5-ylamino)-pyrazine-2-carboxylic acid (1-methyl-5-methylcarbamoyl-1H-pyrazol-4-yl)-amide] was tested, and the IC50 was 4.5 nM.
In the case of `CC1COCCN1C(=O)c1ncccc1NC(=O)c1nc(C2CC2)cnc1Nc1cncnc1` (stereo not drawn) [Example 254, 6-Cyclopropyl-3-(pyrimidin-5-ylamino)-pyrazine-2-carboxylic acid [2-(3-methyl-morpholine-4-carbonyl)-pyridin-3-yl]-amide], the IC50 is reported as 31.7 nM.
With `CCN(C)C(=O)c1ncccc1NC(=O)c1nc(C2CC2)cnc1Nc1cncnc1` [Example 199, 6-Cyclopropyl-3-(pyrimidin-5-ylamino)-pyrazine-2-carboxylic acid [2-(ethyl-methyl-carbamoyl)-pyridin-3-yl]-amide] the IC50 was 6.2 nM.
`CN(C(=O)c1c(NC(=O)c2nc(C3CC3)cnc2Nc2cncnc2)cnn1C)C1CC1` [Example 238, 6-Cyclopropyl-3-(pyrimidin-5-ylamino)-pyrazine-2-carboxylic acid [5-(cyclopropyl-methyl-carbamoyl)-1-methyl-1H-pyrazol-4-yl]-amide] showed an IC50 of 52.3 nM.
In the case of `COC(C)(C)CNC(=O)c1ccncc1NC(=O)c1nc(C2CC2)cnc1Nc1cncnc1` [Example 113, 6-Cyclopropyl-3-(pyrimidin-5-ylamino)-pyrazine-2-carboxylic acid [4-(2-methoxy-2-methyl-propylcarbamoyl)-pyridin-3-yl]-amide], the IC50 is reported as 1.6 nM.
Compound `CC(C)(O)CNC(=O)c1c(NC(=O)c2nc(C3CC3)cnc2Nc2cncnc2)cnn1CC1CCCO1` (stereo not drawn) [Example 244, 6-Cyclopropyl-3-(pyrimidin-5-ylamino)-pyrazine-2-carboxylic acid [5-(2-hydroxy-2-methyl-propylcarbamoyl)-1-(tetrahydro-furan-2-ylmethyl)-1H-pyrazol-4-yl]-amide] has an IC50 of 0.2 nM.
`CN(CC(C)(C)O)C(=O)c1nn(C)cc1NC(=O)c1nc(C2CC2)cnc1Nc1cncnc1` [Example 111, 6-Cyclopropyl-N-(3-((2-hydroxy-2-methylpropyl)(methyl)carbamoyl)-1-methyl-1H-pyrazol-4-yl)-3-(pyrimidin-5-ylamino)pyrazine-2-carboxamide] showed an IC50 of 15 nM.
`Cn1ncc(NC(=O)c2nc(C3CC3)cnc2Nc2cncnc2)c1C(=O)N1CCCCC1` [Example 168, 6-Cyclopropyl-3-(pyrimidin-5-ylamino)-pyrazine-2-carboxylic acid [1-methyl-5-(piperidine-1-carbonyl)-1H-pyrazol-4-yl]-amide] was tested, and the IC50 was 32.9 nM.
For `CN(C)C(=O)c1c(F)cc(F)cc1NC(=O)c1nc(C2CC2)cnc1Nc1cncnc1` [Example 300, 6-Cyclopropyl-3-(pyrimidin-5-ylamino)-pyrazine-2-carboxylic acid (2-dimethylcarbamoyl-3,5-difluoro-phenyl)-amide], the IC50 was 16.7 nM.
In the case of `CNC(=O)c1c(NC(=O)c2nc(C3CC3)cnc2Nc2cncnc2)cnn1CC1CCO1` (stereo not drawn) [Example 282, 6-Cyclopropyl-3-(pyrimidin-5-ylamino)-pyrazine-2-carboxylic acid (5-methylcarbamoyl-1-oxetan-2-ylmethyl-1H-pyrazol-4-yl)-amide], the IC50 is reported as 2 nM.
With `CNC(=O)c1c(NC(=O)c2nc(C3CC3)cnc2Nc2cncnc2)cnn1CC1CCCO1` (stereo not drawn) [Example 243, 6-Cyclopropyl-3-(pyrimidin-5-ylamino)-pyrazine-2-carboxylic acid [5-methylcarbamoyl-1-(tetrahydro-furan-2-ylmethyl)-1H-pyrazol-4-yl]-amide] the IC50 was 1.4 nM.
With `CCN(CCO)C(=O)c1ncccc1NC(=O)c1nc(C2CC2)cnc1Nc1cncnc1` [Example 270, 6-Cyclopropyl-3-(pyrimidin-5-ylamino)-pyrazine-2-carboxylic acid {2-[ethyl-(2-hydroxy-ethyl)-carbamoyl]-pyridin-3-yl}-amide] the IC50 was 53.3 nM.
`CNC(=O)c1c(NC(=O)c2nc(COC)ccc2Nc2cncnc2)cnn1CCOC` [Example 26, 6-Methoxymethyl-3-(pyrimidin-5-ylamino)-pyridine-2-carboxylic acid [1-(2-methoxy-ethyl)-5-methylcarbamoyl-1H-pyrazol-4-yl]-amide] showed an IC50 of 28.3 nM.

Source: patent publication US8703768B2, “Nitrogen containing heteroaryl compounds” (Hoffmann-La Roche Inc., priority 2010, dated 2014)
